IC50 and EC50 data for ten molecules are collected here from US8987195B2 (priority 2012, dated 2015).

A word on the IC50: it is the concentration that inhibits the measured activity by half. What is called EC50 is the midpoint of the concentration-response curve.

The structures appear in SMILES notation. Like-named read-outs stand apart in the source and are kept apart here.

Test [1] addresses HCV NS3/4A protease genotype 1b (Hepatitis C virus genotype 1b, UniProt P26663). As to the kind of experiment: HCV NS3/4A protease time-resolved fluorescence (TRF) assay, Ki against genotype 1b. The class given is biochemical. As to conditions: IC50 [gt-1b], NS3/4A protease TRF assay, genotype 1b enzyme 0.2 nM. In short, it runs like this:
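Ki values come from IC50 fits corrected for substrate concentration and KM. The time-resolved fluorescence protease reaction used 25 nM peptide substrate, 2.5 h, room temperature, pH 7.5 HEPES buffer, after 30 min enzyme–inhibitor preincubation.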

The next test concerns HCV genotype 1b replicon. The test is described as follows: HCV replicon assay, genotype 1b replicon EC50. As to conditions: HCV replicon, genotype 1b, read-out: EC50 [gt-1b]. The class given is cell-based, Hepatitis C virus. In a few lines: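 Compound dilution series incubated 24-48 h, G418 absent, with HCV genotype 1b replicon cell lines kept under G418 selection beforehand. Luciferase signal or replicon RNA, by ^32P hybridization/protection or TaqMan normalized to cyclophilin A, was measured after washing and lysis. Four-parameter fitting against DMSO control gave EC50.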

Chain of HCV NS3/4A protease genotype 1b (P26663 1027-1657): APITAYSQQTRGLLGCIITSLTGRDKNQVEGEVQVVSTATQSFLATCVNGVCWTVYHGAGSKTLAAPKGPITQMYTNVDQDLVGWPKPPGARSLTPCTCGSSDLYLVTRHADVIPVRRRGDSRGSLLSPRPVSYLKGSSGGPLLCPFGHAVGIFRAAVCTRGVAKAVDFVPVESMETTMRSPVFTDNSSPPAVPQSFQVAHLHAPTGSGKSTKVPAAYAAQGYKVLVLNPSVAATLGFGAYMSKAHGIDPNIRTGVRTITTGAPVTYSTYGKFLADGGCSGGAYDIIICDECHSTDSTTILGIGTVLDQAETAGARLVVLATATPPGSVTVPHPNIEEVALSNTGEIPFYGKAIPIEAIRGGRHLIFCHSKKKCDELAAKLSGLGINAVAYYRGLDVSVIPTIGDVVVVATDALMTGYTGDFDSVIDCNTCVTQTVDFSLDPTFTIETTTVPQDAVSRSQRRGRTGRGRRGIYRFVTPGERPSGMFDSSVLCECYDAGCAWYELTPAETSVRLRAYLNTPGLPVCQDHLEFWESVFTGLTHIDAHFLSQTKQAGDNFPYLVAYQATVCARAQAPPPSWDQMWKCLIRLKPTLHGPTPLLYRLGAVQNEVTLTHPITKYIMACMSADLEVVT
Chain of HCV NS3/4A protease genotype 1b (P26663 1658-1711): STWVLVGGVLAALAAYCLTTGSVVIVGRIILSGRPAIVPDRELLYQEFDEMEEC

Take `COc1ccc2nc(C)c3c(c2c1)[C@H](F)C[C@]1(C[C@H]2C(=O)N[C@]4(C(=O)NS(=O)(=O)C5(C)CC5)C[C@H]4/C=C\CCCCC[C@H](NC(=O)OCC(C)(C)C)C(=O)N2C1)O3` [Example 371, 2,2-dimethylpropyl [(1′R,2S,6S,12Z,13aS,14aR,16aS)-1′-fluoro-9′-methoxy-5′-methyl-14a-{[(1-methylcyclopropyl)sulfonyl]carbamoyl}-5,16-dioxo-1,1′,2′,5,6,7,8,9,10,11,13a,14,14a,15,16,16a-hexadecahydrospiro[cyclopropa[e]pyrrolo[1,2-a][1,4]diazacyclopentadecine-2,3′-pyrano[2,3-c]quinolin]-6-yl]carbamate]: the IC50 in test [1] (K+ salt) came out at 15 pM. Also, the EC50 in the test with HCV genotype 1b replicon (Hepatitis C virus, K+ salt) worked out at 1270 pM.

With `COc1ccc2nc(C)c3c(c2c1)[C@H](F)C[C@]1(C[C@H]2C(=O)N[C@]4(C(=O)NS(=O)(=O)C5(C)CC5)C[C@H]4/C=C\CCCCC[C@H](NC(=O)OCC(C)C)C(=O)N2C1)O3` [Example 372, 2-methylpropyl [(1′R,2S,6S,12Z,13aS,14aR,16aS)-1′-fluoro-9′-methoxy-5′-methyl-14a-{[(1-methylcyclopropyl)sulfonyl]carbamoyl}-5,16-dioxo-1,1′,2′,5,6,7,8,9,10,11,13a,14,14a,15,16,16a-hexadecahydrospiro[cyclopropa[e]pyrrolo[1,2-a][1,4]diazacyclopentadecine-2,3′-pyrano[2,3-c]quinolin]-6-yl]carbamate], the IC50 in test [1] (K+ salt) amounted to 10 pM. Further, the EC50 in the test with HCV genotype 1b replicon (Hepatitis C virus, K+ salt) came out at 2120 pM.

With `COc1ccc2nc(C)c3c(c2c1)[C@H](F)C[C@]1(C[C@H]2C(=O)N[C@]4(C(=O)NS(=O)(=O)C5(C)CC5)C[C@H]4/C=C\CCCCC[C@H](NC(=O)OC4CCCC4)C(=O)N2C1)O3` [Example 373, cyclopentyl [(1′R,2S,6S,12Z,13aS,14aR,16aS)-1′-fluoro-9′-methoxy-5′-methyl-14a-{[(1-methylcyclopropyl)sulfonyl]carbamoyl}-5,16-dioxo-1,1′,2′,5,6,7,8,9,10,11,13a,14,14a,15,16,16a-hexadecahydrospiro[cyclopropa[e]pyrrolo[1,2-a][1,4]diazacyclopentadecine-2,3′-pyrano[2,3-c]quinolin]-6-yl]carbamate], the IC50 in test [1] (K+ salt) was found to be 11 pM. For the same molecule, the EC50 in the test with HCV genotype 1b replicon (Hepatitis C virus, K+ salt) was found to be 2670 pM.

As to `COc1ccc2nc(C)c3c(c2n1)[C@H](F)C[C@]1(C[C@H]2C(=O)N[C@]4(C(=O)NS(=O)(=O)C5(C)CC5)C[C@H]4/C=C\CCCCC[C@H](NC(=O)OC(C)(C)C)C(=O)N2C1)O3` [Example 374, tert-butyl [(2S,6S,10′R,12Z,13aS,14aR,16aS)-10′-fluoro-2′-methoxy-6′-methyl-14a-{[(1-methylcyclopropyl)sulfonyl]carbamoyl}-5,16-dioxo-1,5,6,7,8,9,9′,10,10′,11,13a,14,14a,15,16,16a-hexadecahydrospiro[cyclopropa[e]pyrrolo[1,2-a][1,4]diazacyclopentadecine-2,8′-pyrano[2,3-c][1,5]naphthyridin]-6-yl]carbamate], in test [1], half-maximal inhibition (IC50) required 12 pM. Further, the EC50 with HCV genotype 1b replicon (Hepatitis C virus) worked out at 2290 pM.

On to `Cc1nc2ccccc2c2c1O[C@]1(CC2)C[C@H]2C(=O)N[C@]3(C(=O)NS(=O)(=O)C4(C)CC4)C[C@H]3/C=C\CCCCC[C@H](NC(=O)OC3CCC(F)(F)C3)C(=O)N2C1` (stereo partly drawn) [Example 375, 3,3-difluorocyclopentyl [(2R,6S,12Z,13aS,14aR,16aS)-5′-methyl-14a-{[(1-methylcyclopropyl)sulfonyl]carbamoyl}-5,16-dioxo-1,1′,2′,5,6,7,8,9,10,11,13a,14,14a,15,16,16a-hexadecahydrospiro[cyclopropa[e]pyrrolo[1,2-a][1,4]diazacyclopentadecine-2,3′-pyrano[2,3-c]quinolin]-6-yl]carbamate], for which the IC50 in test [1] amounted to 18 pM. The EC50 in the test on HCV genotype 1b replicon is 6380 pM.

In test [1], `Cc1nc2ccccc2c2c1O[C@]1(CC2)C[C@H]2C(=O)N[C@]3(C(=O)NS(=O)(=O)C4(C)CC4)C[C@H]3/C=C\CCCCC[C@H](NC(=O)OC3CCC(F)(F)C3)C(=O)N2C1` (stereo partly drawn) [Example 376, 3,3-difluorocyclopentyl [(2R,6S,12Z,13aS,14aR,16aS)-5′-methyl-14a-{[(1-methylcyclopropyl)sulfonyl]carbamoyl}-5,16-dioxo-1,1′,2′,5,6,7,8,9,10,11,13a,14,14a,15,16,16a-hexadecahydrospiro[cyclopropa[e]pyrrolo[1,2-a][1,4]diazacyclopentadecine-2,3′-pyrano[2,3-c]quinolin]-6-yl]carbamate] had an IC50 of 13 pM. Further, the concentration for a half-maximal effect (EC50) in the test on HCV genotype 1b replicon stood at 2690 pM.

As to `COc1ccc2nc(C)c3c(c2n1)[C@H](F)C[C@]1(C[C@H]2C(=O)N[C@]4(C(=O)NS(=O)(=O)C5(C)CC5)C[C@H]4/C=C\CCCCC[C@H](NC(=O)OCC(C)(C)C)C(=O)N2C1)O3` [Example 377, 2,2-dimethylpropyl [(2S,6S,10′R,12Z,13aS,14aR,16aS)-10′-fluoro-2′-methoxy-6′-methyl-14a-{[(1-methylcyclopropyl)sulfonyl]carbamoyl}-5,16-dioxo-1,5,6,7,8,9,9′,10,10′,11,13a,14,14a,15,16,16a-hexadecahydrospiro[cyclopropa[e]pyrrolo[1,2-a][1,4]diazacyclopentadecine-2,8′-pyrano[2,3-c][1,5]naphthyridin]-6-yl]carbamate], in test [1], the IC50 was determined as 18 pM. In addition, the EC50 with HCV genotype 1b replicon (Hepatitis C virus) amounted to 2520 pM.

`CC(C)(C)OC(=O)N[C@H]1CCCCC/C=C\[C@@H]2C[C@@]2(C(=O)NS(=O)(=O)C2(C)CC2)NC(=O)[C@@H]2C[C@]3(CCc4c(c(C(F)(F)F)nc5ccc(Cl)cc45)O3)CN2C1=O` [Example 378, tert-butyl [(2R,6S,12Z,13aS,14aR,16aS)-9′-chloro-14a-{[(1-methylcyclopropyl)sulfonyl]carbamoyl}-5,16-dioxo-5′-(trifluoromethyl)-1,1′,2′,5,6,7,8,9,10,11,13a,14,14a,15,16,16a-hexadecahydrospiro[cyclopropa[e]pyrrolo[1,2-a][1,4]diazacyclopentadecine-2,3′-pyrano[2,3-c]quinolin]-6-yl]carbamate] came in with an IC50 in test [1] of 20 pM. For the same molecule, the EC50 in the test with HCV genotype 1b replicon (Hepatitis C virus) turned out to be 3590 pM.

Molecule `Cc1nc2ccccc2c2c1O[C@]1(CC2)C[C@H]2C(=O)N[C@]3(C(=O)NS(=O)(=O)C4(C)CC4)C[C@H]3/C=C\CCCCC[C@H](Nc3nc4ccccc4o3)C(=O)N2C1` [Example 379, (2R,6S,12Z,13aS,14aR,16aS)-6-(1,3-benzoxazol-2-ylamino)-5′-methyl-N-[(1-methylcyclopropyl)sulfonyl]-5,16-dioxo-1,1′,2′,6,7,8,9,10,11,13a,14,15,16,16a-tetradecahydrospiro[cyclopropa[e]pyrrolo[1,2-a][1,4]diazacyclopentadecine-2,3′-pyrano[2,3-c]quinoline]-14a(5H)-carboxamide] registered an IC50 in test [1] of 104 pM. Moreover, the EC50 in the test on HCV genotype 1b replicon (Hepatitis C virus) was found to be 1360 pM.

Take `COc1ccc2nc(C)c3c(c2n1)[C@H](F)C[C@]1(C[C@H]2C(=O)N[C@]4(C(=O)NS(=O)(=O)C5(C)CC5)C[C@H]4/C=C\CCCCC[C@H](NC(=O)OC(C)(C)C(F)(F)F)C(=O)N2C1)O3` [Example 380, 1,1,1-trifluoro-2-methylpropan-2-yl [(2S,6S,10′R,12Z,13aS,14aR,16aS)-10′-fluoro-2′-methoxy-6′-methyl-14a-{[(1-methylcyclopropyl)sulfonyl]carbamoyl}-5,16-dioxo-1,5,6,7,8,9,9′,10,10′,11,13a,14,14a,15,16,16a-hexadecahydrospiro[cyclopropa[e]pyrrolo[1,2-a][1,4]diazacyclopentadecine-2,8′-pyrano[2,3-c][1,5]naphthyridin]-6-yl]carbamate]: the IC50 in test [1] (K+ salt) was determined as 21 pM. The EC50 in the test on HCV genotype 1b replicon (Hepatitis C virus, K+ salt) worked out at 5620 pM.
